# Laboratory results: US20260256925A1, “INDAZOLE DERIVATIVES AS ESTROGEN RECEPTOR DEGRADERS” (REGENTS OF THE UNIVERSITY OF MICHIGAN, priority 2022, published 2026)
# Assays:
# [1] = Cell growth assay, WST-8 (compounds B1-B126); type: cell-based; conditions: 96 h; T47D cell line, WST-8, 4 days; read-out: Cell growth inhibition in T47D cell line IC50
# Procedure, shortened: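 Read-out is WST-8 absorbance at 450 nm (2.5 h, 37° C) as a fraction of vehicle control, from three separate repeats. Compound exposure lasted 4 days, starting one day after plating 1500 cells/well.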
# ER = biological target: T1, ER (Homo sapiens, UniProt P03372); test: In-cell western blot analysis, relative ER percentage (compounds B1-B126); type: cell-based; conditions: ER degradation, 16 hours, read-out: ICW DC50
# T1 construct: endogenous in cells; probably T47D or MCF-7
# T1 sequence (P03372 1-595): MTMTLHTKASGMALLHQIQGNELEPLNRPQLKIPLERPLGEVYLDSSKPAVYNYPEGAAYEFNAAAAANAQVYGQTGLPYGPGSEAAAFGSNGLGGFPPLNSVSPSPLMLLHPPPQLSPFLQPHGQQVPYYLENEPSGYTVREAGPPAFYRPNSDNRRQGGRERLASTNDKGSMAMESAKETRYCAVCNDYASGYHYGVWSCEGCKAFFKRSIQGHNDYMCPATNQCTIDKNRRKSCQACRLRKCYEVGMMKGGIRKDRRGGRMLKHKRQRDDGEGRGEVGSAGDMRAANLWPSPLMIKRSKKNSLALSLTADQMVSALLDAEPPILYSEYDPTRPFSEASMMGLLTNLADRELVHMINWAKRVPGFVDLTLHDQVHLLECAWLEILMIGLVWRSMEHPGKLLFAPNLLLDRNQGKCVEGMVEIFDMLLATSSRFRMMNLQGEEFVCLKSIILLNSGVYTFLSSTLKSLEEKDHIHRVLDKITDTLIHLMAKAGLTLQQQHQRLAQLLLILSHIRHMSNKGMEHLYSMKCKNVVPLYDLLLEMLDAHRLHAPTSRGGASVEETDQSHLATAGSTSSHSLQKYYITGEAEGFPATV
# Procedure, shortened: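 Readout was a two-colour infrared in-cell western of formaldehyde-fixed cells after 16 h compound exposure at 0.5% DMSO, with 40,000 or 10,000 cells/well plated the previous night. Relative ER percentage compares treated wells against untreated/DMSO-treated wells taken as 100%.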
Structure (SMILES),DC50 (ER),IC50 [1]
"C[C@H]1Cc2c(ccc3[nH]ncc23)[C@H](c2ccc(N3CC4(CCC(CN5CCN6c7ccc8c(c7OC[C@@H]6C5)CN([C@@H]5CCC(=O)NC5=O)C8=O)CC4)C3)cn2)N1CC(F)(F)F [Compound B124, (R)-3-((S)-7-((2-(6-((6R,8S)-8-methyl-7-(2,2,2-trifluoroethyl)-6,7,8,9-tetrahydro-3H-pyrazolo[4,3-f]isoquinolin-6-yl)pyridin-3-yl)-2-azaspiro[3.5]nonan-7-yl)methyl)-1-oxo-1,3,5,5a,6,7,8,9-octahydro-2H-pyrazino[1′,2′:4,5][1,4]oxazino[2,3-e]isoindol-2-yl)piperidine-2,6-dione]",< 10 nM,< 1 nM
"C[C@@H]1Cc2c(ccc3[nH]ncc23)[C@@H](c2ccc(N3CC4(CC(CN5CCN6c7cc8c(cc7OC[C@@H]6C5)C(=O)N(C5CCC(=O)NC5=O)C8)CO4)C3)cn2)N1CC(F)(F)F (stereo partly drawn) [Compound B97, 3-((4aS)-3-((2-(6-((6S,8R)-8-methyl-7-(2,2,2-trifluoroethyl)-6,7,8,9-tetrahydro-3H-pyrazolo[4,3-f]isoquinolin-6-yl)pyridin-3-yl)-5-oxa-2-azaspiro[3.4]octan-7-yl)methyl)-8-oxo-1,2,3,4,4a,5,8,10-octahydro-9H-pyrazino[1′,2′:4,5][1,4]oxazino[2,3-f]isoindol-9-yl)piperidine-2,6-dione]",< 10 nM,< 1 nM
"C[C@@H]1Cc2c(ccc3[nH]ncc23)[C@@H](c2ccc(N3CCC4(CC3)CC(CN3CCN5c6ccc7c(c6OC[C@H]5C3)CN(C3CCC(=O)NC3=O)C7=O)CO4)cn2)N1CC(F)(F)F (stereo partly drawn) [Compound B91, 3-((5aR)-7-((8-(6-((6S,8R)-8-methyl-7-(2,2,2-trifluoroethyl)-6,7,8,9-tetrahydro-3H-pyrazolo[4,3-f]isoquinolin-6-yl)pyridin-3-yl)-1-oxa-8-azaspiro[4.5]decan-3-yl)methyl)-1-oxo-1,3,5,5a,6,7,8,9-octahydro-2H-pyrazino[1′,2′:4,5][1,4]oxazino[2,3-e]isoindol-2-yl)piperidine-2,6-dione]",< 10 nM,1 to 10 nM
"C[C@@H]1Cc2c(ccc3[nH]ncc23)[C@@H](c2ccc(N3CCC(CN4CCC5(CC4)COc4c(ccc6c4CN([C@H]4CCC(=O)NC4=O)C6=O)O5)CC3)cn2)N1CC(F)(F)F [Compound B119, (S)-3-(1-((1-(6-((6S,8R)-8-methyl-7-(2,2,2-trifluoroethyl)-6,7,8,9-tetrahydro-3H-pyrazolo[4,3-f]isoquinolin-6-yl)pyridin-3-yl)piperidin-4-yl)mcthyl)-7′-oxo-7′,9′-dihydro-2′H,8′H-spiro[piperidine-4,3′-[1,4]dioxino[2,3-e]isoindol]-8′-yl)piperidine-2,6-dione]",10 to 100 nM,< 1 nM
"C[C@@H]1Cc2c(ccc3[nH]ncc23)[C@@H](c2ccc(N3CC4(CCN(C(=O)CN5CCC6(CC5)COc5c6ccc6c5CN(C5CCC(=O)NC5=O)C6=O)CC4)C3)cn2)N1CC(F)(F)F (stereo partly drawn) [Compound B64, 3-(1′-(2-(2-(6-((6S,8R)-8-methyl-7-(2,2,2-trifluoroethyl)-6,7,8,9-tetrahydro-3H-pyrazolo[4,3-f]isoquinolin-6-yl)pyridin-3-yl)-2,7-diazaspiro[3.5]nonan-7-yl)-2-oxoethyl)-6-oxo-6,8-dihydro-2H,7H-spiro[furo[2,3-e]isoindole-3,4′-piperidin]-7-yl)piperidine-2,6-dione]",< 10 nM,< 1 nM
"C[C@@H]1Cc2c(ccc3[nH]ncc23)[C@@H](c2ccc(N3CCC4(CC3)CN(C(=O)CN3CCC5(CC3)COc3c5ccc5c3CN(C3CCC(=O)NC3=O)C5=O)C4)cn2)N1CC(F)(F)F (stereo partly drawn) [Compound B78, 3-(1′-(2-(7-(6-((6S,8R)-8-methyl-7-(2,2,2-trifluoroethyl)-6,7,8,9-tetrahydro-3H-pyrazolo[4,3-f]isoquinolin-6-yl)pyridin-3-yl)-2,7-diazaspiro[3.5]nonan-2-yl)-2-oxoethyl)-6-oxo-6,8-dihydro-2H,7H-spiro[furo[2,3-e]isoindole-3,4′-piperidin]-7-yl)piperidine-2,6-dione]",< 10 nM,< 1 nM
"C[C@@H]1Cc2c(ccc3[nH]ncc23)[C@@H](c2ccc(N3CC4(CCC(CN5CCN6c7ccc8c(c7OC[C@H]6C5)CN(C5CCC(=O)NC5=O)C8=O)CC4)C3)cn2)N1CC(F)F (stereo partly drawn) [Compound B86, 3-((R)-7-((2-(6-((6S,8R)-7-(2,2-difluoroethyl)-8-methyl-6,7,8,9-tetrahydro-3H-pyrazolo[4,3-f]isoquinolin-6-yl)pyridin-3-yl)-2-azaspiro[3.5]nonan-7-yl)mcthyl)-1-oxo-1,3,5,5a,6,7,8,9-octahydro-2H-pyrazino[1′,2′:4,5][1,4]oxazino[2,3-e]isoindol-2-yl)piperidine-2,6-dione]",< 10 nM,1 to 10 nM
"C[C@H]1Cc2c(ccc3[nH]ncc23)[C@H](c2ccc(NC3CN(CC(=O)N4CCN5c6cc7c(cc6OC[C@@H]5C4)C(=O)N(C4CCC(=O)NC4=O)C7)C3)cn2)N1CC(F)(F)F (stereo partly drawn) [Compound B43, 3-((S)-3-(2-(3-((6-((6R,8S)-8-methyl-7-(2,2,2-trifluoroethyl)-6,7,8,9-tetrahydro-3H-pyrazolo[4,3-f]isoquinolin-6-yl)pyridin-3-yl)amino)azetidin-1-yl)acetyl)-8-oxo-1,2,3,4,4a,5,8,10-octahydro-9H-pyrazino[1′,2′:4,5][1,4]oxazino[2,3-f]isoindol-9-yl)piperidine-2,6-dione]",10 to 100 nM,1 to 10 nM

# The next lines start with results.
DC50 (ER),Structure (SMILES),IC50 [1]
< 10 nM,"C[C@@H]1Cc2c(ccc3[nH]ncc23)[C@@H](c2c(F)cc(N3CC4(CN(CC(=O)N5CCN6c7cc8c(cc7OC[C@@H]6C5)C(=O)N(C5CCC(=O)NC5=O)C8)C4)C3)cc2F)N1CC(F)F (stereo partly drawn) [Compound B38, 3-((S)-3-(2-(6-(4-((6S,8R)-7-(2,2-difluorocthyl)-8-mcthyl-6,7,8,9-tetrahydro-3H-pyrazolo[4,3-f]isoquinolin-6-yl)-3,5-difluorophenyl)-2,6-diazaspiro[3.3]heptan-2-yl)acetyl)-8-oxo-1,2,3,4,4a,5,8,10-octahydro-9H-pyrazino[1′,2′:4,5][1,4]oxazino[2,3-f]isoindol-9-yl)piperidine-2,6-dione]",< 1 nM
< 10 nM,"C[C@@H]1Cc2c(ccc3[nH]ncc23)[C@@H](c2c(F)cc(NC3CC4(C3)CN(C(=O)CN3CCN5c6cc7c(cc6OC[C@@H]5C3)C(=O)N(C3CCC(=O)NC3=O)C7)C4)cc2F)N1CC(F)F (stereo partly drawn) [Compound B39, 3-((S)-3-(2-(6-((4-((6S,8R)-7-(2,2-difluoroethyl)-8-methyl-6,7,8,9-tetrahydro-3H-pyrazolo[4,3-f]isoquinolin-6-yl)-3,5-difluorophenyl)amino)-2-azaspiro[3.3]heptan-2-yl)-2-oxoethyl)-8-oxo-1,2,3,4,4a,5,8,10-octahydro-9H-pyrazino[1′,2′:4,5][1,4]oxazino[2,3-f]isoindol-9-yl)piperidine-2,6-dione]",< 1 nM
< 10 nM,"C[C@@H]1Cc2c(ccc3[nH]ncc23)[C@@H](c2c(F)cc(N3CC4(CCN(CC(=O)N5CCN6c7cc8c(cc7OC[C@@H]6C5)C(=O)N(C5CCC(=O)NC5=O)C8)C4)C3)cc2F)N1CC(F)F (stereo partly drawn) [Compound B40, 3-((S)-3-(2-(2-(4-((6S,8R)-7-(2,2-difluoroethyl)-8-methyl-6,7,8,9-tetrahydro-3H-pyrazolo[4,3-f]isoquinolin-6-yl)-3,5-difluorophenyl)-2,6-diazaspiro[3.4]octan-6-yl)acetyl)-8-oxo-1,2,3,4,4a,5,8,10-octahydro-9H-pyrazino[1′,2′:4,5][1,4]oxazino[2,3-f]isoindol-9-yl)piperidine-2,6-dione]",< 1 nM
< 10 nM,"C[C@@H]1Cc2c(ccc3[nH]ncc23)[C@@H](c2c(F)cc(N3CCC4(CN(CC(=O)N5CCN6c7cc8c(cc7OC[C@@H]6C5)C(=O)N(C5CCC(=O)NC5=O)C8)C4)C3)cc2F)N1CC(F)F (stereo partly drawn) [Compound B41, 3-((S)-3-(2-(6-(4-((6S,8R)-7-(2,2-difluoroethyl)-8-methyl-6,7,8,9-tetrahydro-3H-pyrazolo[4,3-f]isoquinolin-6-yl)-3,5-difluorophenyl)-2,6-diazaspiro[3.4]octan-2-yl)acetyl)-8-oxo-1,2,3,4,4a,5,8,10-octahydro-9H-pyrazino[1′,2′:4,5][1,4]oxazino[2,3-f]isoindol-9-yl)piperidine-2,6-dione]",< 1 nM
< 10 nM,"COc1cc(N2CCC3(CCN(C(=O)CN4Cc5cc6c(cc5C4)C(=O)N(C4CCC(=O)NC4=O)C6)CC3)CC2)ccc1[C@@H]1c2ccc3[nH]ncc3c2C[C@@H](C)N1CC(F)F (stereo partly drawn) [Compound B69, 3-(6-(2-(9-(4-((6S,8R)-7-(2,2-difluoroethyl)-8-methyl-6,7,8,9-tetrahydro-3H-pyrazolo[4,3-f]isoquinolin-6-yl)-3-methoxyphenyl)-3,9-diazaspiro[5.5]undecan-3-yl)-2-oxoethyl)-1-oxo-3,5,6,7-tetrahydropyrrolo[3,4-f]isoindol-2(1H)-yl)piperidine-2,6-dione]",< 1 nM
